Target: T1, H420R mouse tyrosinase (Mus musculus, UniProt P11344, H420R)
T1 construct: expressed in transfected cells; host or cells: CHO cells, pcDNA3.1
T1 sequence (P11344 19-533 H420R): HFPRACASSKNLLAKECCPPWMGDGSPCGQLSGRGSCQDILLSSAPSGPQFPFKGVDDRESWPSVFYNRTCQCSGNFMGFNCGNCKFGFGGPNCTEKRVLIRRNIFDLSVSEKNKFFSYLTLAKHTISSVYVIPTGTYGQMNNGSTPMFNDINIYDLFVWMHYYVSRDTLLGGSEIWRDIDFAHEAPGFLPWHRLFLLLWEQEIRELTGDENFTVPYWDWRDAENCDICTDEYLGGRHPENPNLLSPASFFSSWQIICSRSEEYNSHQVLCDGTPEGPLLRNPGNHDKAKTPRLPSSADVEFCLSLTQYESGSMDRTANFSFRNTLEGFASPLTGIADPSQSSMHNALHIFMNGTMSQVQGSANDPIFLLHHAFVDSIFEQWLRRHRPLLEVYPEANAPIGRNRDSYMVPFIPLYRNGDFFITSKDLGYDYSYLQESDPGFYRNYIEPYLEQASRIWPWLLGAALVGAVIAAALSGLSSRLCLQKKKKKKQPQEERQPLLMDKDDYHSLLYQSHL
Assay: Tyrosinase protein stability in CHO cells with cycloheximide, H420R
Format: cell-based
Settings: 1 mM tyrosine, later time points (9 and 24 hours)
Method: In Vitro Expression and Enzyme Activity. The expression construct of mouse Tyr was a kind gift of Dr. C. Olivares from the School of Medicine of the University of Murcia (Spain). This construct was prepared in the pcDNA3.1 expression vector (Invitrogen, Carlsbad, Calif.) using EcoRI/XbaI restriction sites and based on the mouse Tyr clone obtained as described previously in C. Olivares, et al., Biochem. J., 354:131 (2001). Constructs of tyrosinase gene mutant variants, with changes corresponding to missense mutations R77L and H420R in the mouse tyrosinase protein sequence, were created using standard methodologies (Mutagenex Inc., Piscataway, N.J.). […]
Chinese hamster ovary cells (CHO) (generous gift from Dr. J. T. Wroblewski from the Pharmacology Department, Georgetown University Medical Center, Washington D.C.) were grown at a temperature of about 37° C. in DMEM media, in the presence of 10% fetal bovine serum, 1% penicillin and 4.5 g […] per 0.5 liter of media. […] The total protein content in protein lysates was determined spectrophotometrically as a 280/260 ratio. Protein expression was analyzed by Western blotting, and GAPDH was used as an internal loading control. For the analysis, Western blots were scanned, intensities of protein bands were determined, and ratios of band intensities for the wild type or mutant variants, to that of GAPDH were calculated. […]

## N[C@@H](Cc1ccc(O)cc1)C(=O)O [tyrosine]
  Stability of H420R mutant tyrosinase protein relative to GAPDH: improved the stability
